Laboratory results: article PMC6881481, “Integrative Multi-Kinase Approach for the Identification of Potent Antiplasmodial Hits” (Frontiers in Chemistry, 2019)
Where two headings read alike, the source gives them in different places.

Tests used:
[1] = system: P. falciparum 3D7 (sensitive) strain, asexual blood stage; test: Plasmodium growth inhibition by SYBR Green I, 3D7 strain; format: cell-based
Description: (§1) Parasite cultures (3D7 and Dd2 strains) were maintained in O^+ human erythrocytes in RPMI 1640 medium supplemented with 0.05 mg/mL gentamycin, 38.4 mM HEPES, 0.2% sodium bicarbonate, and 10% O^+ human serum as described before (Trager and Jensen, [1976]). To achieve a synchronic culture in the ring stage, two consecutive treatments at 48 h intervals with a 5% solution of D-sorbitol were done (Lambros and Vanderberg, [1979]).
(§2) Synchronized ring-stage (> 90%) infected erythrocytes were dispensed in duplicate into 96-well plates (0.5% parasitemia, 1% hematocrit) and incubated in dose response format with test compounds for 72 h. Chloroquine was used as an antimalarial control and uninfected erythrocytes as negative control. Then, in vitro susceptibility of parasite to tested drug was measured by SYBR Green (Hartwig et al., [2013]). Following incubation, the plates were frozen and thawed, and 100 μL of the culture were transferred to a new black 96-well plate containing 100 μL of lysis buffer (20 mM Tris, 5 mM EDTA, 0.008% wt/vol saponin, 0.08% vol/vol Triton X-100, and 0.4 μL/mL of SYBR Green). After 1 h, the fluorescence was measured at 490 nm excitation and 540 nm emission (CLARIOstar, Labtech BMG). […] The EC50 was calculated by plotting the Log doses vs. Inhibition (expressed as a percentage relative to the control) in Prism 6 (GraphPad Software Inc.). Each test was performed at least three independent experiments.

[2] = system: P. falciparum Dd2 (multi-drug-resistant) strain, asexual blood stage; test: Plasmodium growth inhibition by SYBR Green I, Dd2 strain; format: cell-based; details: read-out: EC50 Dd2
Description: as §1, §2

[3] = Cytotoxicity assay (MTT reduction), HEPG2 cells; format: cell-based, human; details: human, HEPG2 cells (human hepatoma); HEPG2 cells, 72 h, mean ± SD
Description: (§3) The cytotoxicity was evaluated using two different lineages of mammalian cells: fibroblast-like cell lines derived from monkey kidney tissue (COS7 cells) and human hepatoma cell line (HEPG2). The cells were grown in 75 cm^2 flasks containing DMEM medium supplemented with 10% fetal bovine serum and 0.05 mg/mL gentamicin under a 5% CO2 atmosphere at 37°C. After harvest of cells, 100 μL aliquots were distributed in 96-well plates (1 x 10^4 cells per well) and incubated until adhesion (~12 h). The compounds at various concentrations (100−0.048 μM) were placed in the wells in duplicate and incubated for 72 h. The cell viability analysis were done by the MMT reduction method (3-[4,5-dimethyl-thiazol-2-yl]-2,5-diphenyltetrazolium […]), after the incubation period (Mosmann, [1983]). The optical density was determined at 570 nm (CLARIOstar, Labtech BMG) and the 50% cytotoxicity concentrations (CC50) were expressed as the percent viability relative to the control (untreated cells). The selectivity index of the compounds was determined through the ratio of the CC50 of both cytotoxicity results (COS7 and HEPG2 cells) and EC50 3D7, separately. Experiments were performed at least three times.

[4] = system: HEPG2 cells; test: Cytotoxicity assay (MTT reduction), HEPG2 cells; format: cell-based, human; details: CC50 HEPG2 / EC50 3D7
Description: as §3

[5] = system: P. berghei Ookluc line ookinete formation; test: Inhibition of P. berghei sexual stage progression (ookinete conversion, nLuc); format: cell-based; details: Plasmodium berghei, 24 h at 21°C, mean ± SD
Description: Balb/c mice were infected intraperitoneally with the P. berghei Ookluc line (Calit et al., [2018]). Four to five days after infection, the infected blood was collected by cardiac puncture and 4 μL were seeded to a volume of 80 μL of ookinete medium (Blagborough et al., [2013]), at 21°C, containing 10 μM of compounds or DMSO vehicle control. After 24h incubation at 21°C, the nLuc substrate (Nano-Glo, Promega) was added to each well 1:1 (v:v) and incubated for 5 min at 37°C. The luciferase activity was measured using a plate luminometer SpectraMax i3; Molecular Devices and the % of conversion inhibition were calculated relative to the luciferase activity in the control assays. This assay was approved by the Ethics Committee (protocol number 132/2014-CEUA) of the Institute of Biomedical Sciences—University of São Paulo.

[6] = Cytotoxicity assay (MTT reduction), COS7 cells; format: cell-based, monkey; details: monkey, COS7 cells (fibroblast-like, monkey kidney); COS7 cells, 72 h, mean ± SD
Description: as §3

[7] = system: COS7 cells; test: Cytotoxicity assay (MTT reduction), COS7 cells; format: cell-based, monkey; details: for SI* (selectivity index between CC50 COS7 and EC50 3D7 strain): CC50 COS7 / EC50 3D7; for selectivity indices: mammalian cells vs 3D7 (abstract)
Description: as §3

[8] = system: P. falciparum CDPK4; parameters: method as in ref Crowther et al., 2016; National Center for Biotechnology Information, 2016b; details: query of shape-based model, ref Crowther et al., 2016, National Center for Biotechnology Information, 2016b; cited from earlier work
[9] = system: P. falciparum PK6; parameters: method as in ref Crowther et al., 2016; National Center for Biotechnology Information, 2016c; details: query of shape-based model, ref Crowther et al., 2016, National Center for Biotechnology Information, 2016c; cited from earlier work
[10] = system: P. falciparum CDPK1; parameters: method as in ref Crowther et al., 2016; National Center for Biotechnology Information, 2016a; details: query of shape-based model, ref Crowther et al., 2016, National Center for Biotechnology Information, 2016a; cited from earlier work
[11] = 3D7 strain, 72 h, mean ± SD of three independent assays, read-out: EC50 3D7
[12] = Dd2 strain, 72 h, mean ± SD of three independent assays
[13] = 3D7, both sensitive and multi-drug resistant P. falciparum strains (abstract), read-out: EC50 (antiplasmodial activity)
[14] = 3D7 / DD2, both 3D7 and Dd2 strains, summary bound, read-out: EC50 (3D7 and Dd2 strains)

Compound	CC50 at 72 h [3]	SI** (selectivity index between CC50 HEPG2 and EC50 3D7 strain) [4]	EC50 [1, 11]	EC50 [2, 12]	inhibition at 10 µM [5]	CC50 at 72 h [6]	SI* (selectivity index between CC50 COS7 and EC50 3D7 strain) [7]	further results
CCN(CC)CCCC(C)Nc1ccnc2cc(Cl)ccc12 (stereo not drawn) [Chloroquine, reference compound]								EC50 ([1]; 3D7, 72 h, read-out: EC50 3D7): 20 ± 10 nM; EC50 ([2]; DD2, 72 h): 150 ± 40 nM
COc1ccc(Nc2nc(Nc3ccc([N+](=O)[O-])cc3)nc(OC)n2)cc1 [LabMol-169]	20000 ± 2260 nM	2.27	8770 ± 2200 nM	3400 ± 1680 nM	8.58 ± 7.62%	44600 ± 3730 nM	5.09	
COc1ccc(Nc2nc(C)c(N)c(Nc3ccc(OC)cc3)n2)cc1 [LabMol-170]	5430 ± 2390 nM	4.76	1140 ± 200 nM	2020 ± 360 nM	11.2 ± 19.5%	7590 ± 4090 nM	6.66	
CC(O)c1cccc(Nc2nc(NCCO)c3ccccc3n2)c1 (stereo not drawn) [LabMol-171]	19300 ± 3690 nM	55.17	350 ± 80 nM	700 ± 410 nM	70 ± 22.2%	48400 ± 14000 nM	138.26	EC50 [1, 13]: ≤ 700 nM; EC50 [1, 14]: < 1000 nM; selectivity indices [7]: > 15 folds
CC(O)c1cccc(Nc2nc(NCc3ccco3)c3ccccc3n2)c1 (stereo not drawn) [LabMol-172]	10200 ± 5530 nM	23.74	430 ± 80 nM	480 ± 170 nM	8.59 ± 13%	12100 ± 1440 nM	28.16	EC50 [1, 13]: ≤ 700 nM; EC50 [1, 14]: < 1000 nM; selectivity indices [7]: > 15 folds
CN1CCN(CCC2CCCCN2Cc2ccnc3ccccc23)CC1 (stereo not drawn) [LabMol-173]			> 5000 nM		0%			
Cc1cc(NCCCN2CCN(C)CC2)nc(-c2ccccc2O)n1 [LabMol-174]			> 5000 nM		21.4 ± 36.7%			
O=C(NCCO)c1cccc(Nc2nc(-c3ccccc3)c3cc(Cl)ccc3n2)c1 [LabMol-175]			> 5000 nM		12.9 ± 22.3%			
CC(Nc1nc(N2CCNCC2)nc2ccccc12)c1ccccc1 (stereo not drawn) [LabMol-176]	5630 ± 1510 nM	4.90	1150 ± 260 nM	1710 ± 400 nM	20.5 ± 19.4%	34900 ± 4060 nM	30.33	
Cc1ccc(-c2nc(NCc3cnc(C)cn3)ncc2-c2ccc(N)nc2)cc1 [LabMol-177]			> 5000 nM		8.76 ± 15.2%			
c1ccc2c(NCC3CCCO3)nc(Nc3ccc4c(c3)OCO4)nc2c1 (stereo not drawn) [LabMol-181]	6130 ± 2050 nM	15.72	390 ± 60 nM	400 ± 100 nM	51.8 ± 23.2%	18300 ± 1920 nM	46.90	EC50 [1, 13]: ≤ 700 nM; EC50 [1, 14]: < 1000 nM; selectivity indices [7]: > 15 folds
Cc1[nH]c(/C=C2\C(=O)Nc3ccc(S(=O)(=O)Cc4c(Cl)cccc4Cl)cc32)c(C)c1C(=O)N1CCC[C@@H]1CN1CCCC1 [SID 307068815]								IC50 [8]: 21 nM
CNC(=O)c1ccccc1Nc1nc(Nc2ccc(N3CCOCC3)cc2)ncc1Cl [SID 307071719]								IC50 [9]: 42 nM
CCn1c(-c2nonc2N)nc2c(-c3cccc(NC(=O)Nc4cccc(C(F)(F)F)c4)c3)ncc(OCCCN)c21 [SID 307073749]								IC50 [10]: 15 nM
O=C(NCCCN1CCCCC1)c1ccc(Nc2nccc(Nc3ccc(Oc4ccccc4)cc3)n2)cc1 [SID 307076176]								IC50 [10]: 94 nM
CC(C)(CN)c1nc(-c2ccc(Cl)c(O)c2)c(-c2ccnc(N)n2)[nH]1 [SID 307078537]								IC50 [10]: 7 nM
